Assay results published in patent publication EP2703005A1, “Inhibitors of alpha6 Integrin/E-Cadherin Complex” (Università Degli Studi Di Torino, priority 2012, dated 2014).

Experiments:
LS-174T = assay: Liver homing model, intrasplenic implantation; assay type: in vivo, CD-1 nude mice; conditions: 2x10^6/mouse intrasplenically with 100 µM soluble peptide, versus vehicle
Procedure: (§1) Animal models of human metastatic CRC. Six-week female CD1-nude mice were purchased from Charles River (Lecco, Italy). Animals were subjected to intraperitoneal anaesthesia with a mixture composed by 0.75 mg/ml xylazine (Xilor®, BIO98, Milan, Italy), 1 mg/ml tiletamine - 1mg/ml zolazepam (Zoletil®, Virbac, Milan, Italy), in physiological solution. After the mice were deeply asleep, a midline incision was performed and target organs were gently exposed. Two or five million suspended cells were injected in 50 µl of culture medium intrasplenically (Tibbettset al. 1993. Cancer, 71:315-321) or into the median liver lobe (Grothey, et al. 2009. Nat Rev Clin Oncol, 6:507-518), respectively. To investigate a pharmacological intervention on liver homing and/or colonization of CRC cells, animals were divided in two arms, receiving medium alone (vehicle) or supplemented with 100 µM […] peptide. The wound was closed by a double suture and each animal was given 0.1 mg caprofen (Rymadil®, Pfizer, Milan, Italy) in a physiological solution to allow post-operative pain relief and rehydration. Mice were strictly monitored until completely awake, and oral ampicillin was administered for 5 days following the surgery. Mice were euthanized at the indicated time points, and organs were photographed with a PL-200 digital photocamera (Samsung Electronics, Milan, Italy). External metastatic areas were quantified using ImageJ software.

DLD-1 [1] = assay: Liver homing model, intrasplenic implantation; assay type: in vivo, CD-1 nude mice; conditions: 2x10^6/mouse intrasplenically with 100 µM soluble peptide, versus vehicle; effect stated as not significant in this model
Procedure: as §1

HCT-116m [2] = assay: Liver homing model, intrasplenic implantation; assay type: in vivo, CD-1 nude mice; conditions: 2x10^6/mouse intrasplenically with 100 µM soluble peptide, versus vehicle; 20 days
Procedure: as §1

SW-48 [3] = assay: Liver homing model, intrasplenic implantation; assay type: in vivo, CD-1 nude mice; conditions: 2x10^6/mouse intrasplenically with 100 µM soluble peptide, versus vehicle
Procedure: as §1

HCCM-1544 = assay: Liver homing model, intrasplenic implantation; assay type: in vivo, CD-1 nude mice; conditions: 2x10^6/mouse intrasplenically with 100 µM soluble peptide, versus vehicle
Procedure: as §1

LS-174T cells = assay: Hepatic colonization model, intrahepatic injection of CRC cells; assay type: in vivo, CD-1 nude mice; conditions: 5x10^6 cells/mouse injected with 100 µM soluble peptide, 14 days, versus vehicle
Procedure: as §1, with “Mice were euthanized at the indicated time points, and organs were photographed with a PL-200 digital photocamera (Samsung Electronics, Milan, Italy).” left out

NCI-H630 cells [4] = assay: Cell adhesion to peptides and proteins coated on microwells; assay type: cell-based, human
Description: Preparation of cell lines with silenced expression of the MTS-tageted genes. A transient gene silencing approach was applied to cells used exclusively for short-term, in vitro experiments. NCI-H630 cells were transduced with ON-TARGETplus SmartPOOL siRNA for ITGA6 and CDH1, or with control siRNA (Dharmacon, Lafayette, CO). For each experimental point, 2x10^5 cells were reverse-transfected with either control, ITGA6, CDH1, or both siRNA pools, according to the manufacturer's protocol. To quantify the downmodulation of targeted genes, RNA and protein levels were evaluated after 24 and 72 hours, respectively. A stable gene silencing approach was preferred for cells used for long-term, in vivo experiments. For this purpose, 2x10^5 HCT-116m, SW-48, HT-29, or DLD-1 cells were transfected with shRNA plasmid pools targeting ITGA6 (sc-43129-SH) or CDH1 (sc-35242-SH), or with non-targeting control shRNA plasmid pool A (sc-108060) (all from Santa Cruz Biotechnologies), according to the manufacturer's protocol. Following selection in medium supplemented with 2.5 µg/ml puromycin, 6 clones for each experimental point were subjected to dotblot analysis to confirm selective protein down-regulation. […]
(§2) Adhesion, proliferation, and migration assays. […] Adhered cells were counted manually under a light microscope.

α6 integrin/E-cadherin = biological target: T1, α6 integrin/E-cadherin (Homo sapiens, UniProt P12830+P23229); assay: Confocal imaging of α6 integrin and E-cadherin in explanted liver tumor tissues; assay type: in vivo, CD-1 nude mice; conditions: LS-174T liver tumors, cells injected with soluble peptide, 14 days
T1 construct: subjected to immunostaining with anti-α6 integrin and anti-E-cadherin antibodies followed by confocal microscopic imaging; endogenous in cells; host or cells: human CRC cells (LS-174T; also HCT-116m, SW-48, DLD-1, HT-29) xenografted into the liver of CD-1 nude mice
Procedure: Immunostaining. OCT-frozen tissues were cut in 10 µm sections, paraffin-embedded tissues in 5 µm sections. For immunostaining of cell lines, 10^4 cells were plated on a SuperFrost Plus glass slide (Menzel-Glaser, Braunschweig, Germany) and were grown for 24 hours followed by fixation in 4% paraformaldehyde in PBS for 5 minutes at room temperature. Immunostaining was performed according to standard protocols. Fluorescent images were acquired with either a DMIRE2 confocal microscope or with a DMI 3000D microscope equipped with a DFC 360FX digital camera (all from Leica. Visible images were acquired with either an EC3 Leica (immunostaining of frozen tissues) or a High-Performance IEEE 1394 FireWire Digital CCD Camera (QIMAGING, Surrey, BC, Canada) (immunostaining of paraffin-embedded tissues). For the quantification of specific fluorescent signals, 3 confocal images (1024x1024 pixels, equivalent to 375x375 µm) for each sample, acquired by keeping all the parameters constant, were divided in two 8-bit images corresponding to the red and green fluorescence channels. […]
Animal models of human metastatic CRC. […] Mice were strictly monitored until completely awake, and oral ampicillin was administered for 5 days following the surgery. […] External metastatic areas were quantified using ImageJ software.

[5] = test system: U293 cells transduced with α6 integrin, E-cadherin or both; assay: Liver adhesion assay on frozen sections of grossly normal human liver; assay type: cell-based; conditions: 30 minutes, versus control peptide
Description: (§3) Preparation of cells stably overexpressing the MTS-targeted proteins. The cDNA of FLAG-tagged human angiopoietin-like 6, inserted into pcDNA3.1 (+).Neo vector (pcDNA3.ANGL6), was a gift from Dr. Y. Oike (Japan Science and Technology Agency, Japan (Minn et al., 2007, Proc Natl Acad Sci USA, 104:6740-6745); the cDNA of human E-cadherin, cloned into a pcDNA3.1 (+). Neo vector (pcDNA3.CAD1) was a gift from Dr. C. Gottardi (North Western University Medical School, Chicago, IL (Bos, et al. 2009, Nature 459:1005-1009); the cDNA of β4 integrin, cloned into a PRK5 plasmid (pRK5.ITB4), was purchased from Addgene (Cambridge, MA); the cDNA of human α6A integrin, inserted in pLXSN plasmid (pLα6SN (Kuo et al. 1995, Proc Natl Acad Sci USA, 92:12085-12089), was a gift of Dr. A. Magrelli (La Sapienza University, Rome, Italy). The latter was PCR-amplified with the following primer pair: • 5'-[…]-3' (SEQ ID No 28) and • 5'-[…]-3' (SEQ ID No 29) and subcloned into a pcDNA3.1 (+). Hygro vector between HindIII and ApaI sites to obtain the pcDNA3.ITA6A plasmid. […]
as §2

[6] = test system: U293 cells stably overexpressing E-cadherin, α6 integrin or both; assay: Cell proliferation assay (crystal violet); assay type: cell-based, human; conditions: 100 µM peptide, 10% FCS, versus control peptide
Description: as §3, with “(+).” for “(+). Hygro vector between HindIII and ApaI sites to obtain the pcDNA3.ITA6A plasmid.”
To test the effects of peptides on cell proliferation, we seeded 2x10^4 cells per well in a 24-well plate, in the presence of either control or […] peptide (100 µM). […] Cell growth was evaluated by absorbance at 590 nm in a microplate reader (Perkin Elmerm Waltham, MA). A calibration curve was set up with known numbers of cells and a linear correlation between absorbance and cell counts was established up to 5x10^5 cells/well.

β4 integrin = biological target: T2, β4 integrin (Homo sapiens, UniProt P16144+P23229); assay: Affinity purification of liver metastasis lysates on column-immobilized peptide, ELISA for integrin subunits; assay type: binding; conditions: lysates of 7 pooled human liver metastases, versus salt and control peptide fractions
T2 construct: from tissue; host or cells: 7 pooled human liver metastases secondary to CRC
Procedure: Validation of MTS-phage targets. Binding of single phage clones on whole cells was performed with a 10^9 TU input of each phage on 5x10^5 suspended cells in binding medium as described (Chambers et al. 2002. Nat Rev Cancer, 2:563-572). For overlay binding experiments, 5 x10^9 TU/ml of each phage was incubated with 10 µm tissue sections of OCT-frozen tissues and detected as described , with the EnVision system (DAKO) and 3-amino-9-ethylcarbazole (AEC) as substrate (Arap et al 2002, Nat Med, 8:121-127; Padua et al. 2008, Cell, 133:66-77). Phage overlay images were acquired with an EC3 Leica camera (Leica Microsystems, Milan, Italy). […] Protein amounts in collected fractions were followed by reading their OD at 280 nm, and selected fractions were concentrated by the use of Microcon centrifugal filter devices with cut-off 10,000 (Millipore) to remove residual synthetic peptides. Proteins were quantified with the Coomassie (Bradford) Protein Assay Kit (Pierce), and 500 ng of each sample was evaluated for the presence of specific integrin subunits with a standard ELISA assay. In parallel, the relative amount of targeted proteins was assessed by phage binding as described (66), on 2 µg of each sample and with an input of 10^9 TU of fd-tet or […]-phage. […]

DLD-1 [7] = assay: Liver adhesion assay on frozen sections of grossly normal human liver; assay type: cell-based; conditions: 30 minutes, versus control peptide
Procedure: (§4) Adhesion, proliferation, and migration assays. All the described in vitro tests were performed at least in triplicate. For investigation of cell adhesion to peptides and proteins, 1 µg of each substrate was incubated per well of a 96 well-plate for 1 hour at 37°C. After a blocking step in IMDM, 2% FCS for 1 hour at 37°C, 10^4 cells were allowed to adhere for 1 hour at 37°C. Samples were washed gently in PBS, and cells were fixed in 8% glutaraldehyde and stained in 0.25% crystal violet in 10% methanol. For tissue adhesion, OCT-frozen grossly normal liver samples were cut into 10 µm sections. Tissues were blocked in IMDM, 2% FCS for 30 minutes at 37°C, followed by incubation with 5x10^4 cells in 5% CO2 at 37°C, for the indicated periods of time. Samples were washed 4 times in the same medium and once in PBS, fixed in 4% para-formaldehyde, and stained with hematoxylin (BioOptica). Adhered cells were counted manually under a light microscope.

HCT-116 cells = assay: as above; assay type: cell-based; conditions: non-metastatic cells with very low levels of the receptor proteins; 30 minutes
Procedure: as §4

NCI-H630 cells [8] = assay: as above; assay type: cell-based; conditions: liver sections from 27 patients, 30 minutes, versus control peptide
Procedure: as §4

HCT-116m [9] = assay: as above; assay type: cell-based; conditions: 30 minutes, versus control peptide
Procedure: as §4

HT-29 = assay: as above; assay type: cell-based; conditions: 30 minutes, versus control peptide
Procedure: as §4

SW-48 [10] = assay: as above; assay type: cell-based; conditions: 30 minutes, versus control peptide
Procedure: as §4

T1 sequence (P23229 24-1073 isoform P23229-2 limits assumed): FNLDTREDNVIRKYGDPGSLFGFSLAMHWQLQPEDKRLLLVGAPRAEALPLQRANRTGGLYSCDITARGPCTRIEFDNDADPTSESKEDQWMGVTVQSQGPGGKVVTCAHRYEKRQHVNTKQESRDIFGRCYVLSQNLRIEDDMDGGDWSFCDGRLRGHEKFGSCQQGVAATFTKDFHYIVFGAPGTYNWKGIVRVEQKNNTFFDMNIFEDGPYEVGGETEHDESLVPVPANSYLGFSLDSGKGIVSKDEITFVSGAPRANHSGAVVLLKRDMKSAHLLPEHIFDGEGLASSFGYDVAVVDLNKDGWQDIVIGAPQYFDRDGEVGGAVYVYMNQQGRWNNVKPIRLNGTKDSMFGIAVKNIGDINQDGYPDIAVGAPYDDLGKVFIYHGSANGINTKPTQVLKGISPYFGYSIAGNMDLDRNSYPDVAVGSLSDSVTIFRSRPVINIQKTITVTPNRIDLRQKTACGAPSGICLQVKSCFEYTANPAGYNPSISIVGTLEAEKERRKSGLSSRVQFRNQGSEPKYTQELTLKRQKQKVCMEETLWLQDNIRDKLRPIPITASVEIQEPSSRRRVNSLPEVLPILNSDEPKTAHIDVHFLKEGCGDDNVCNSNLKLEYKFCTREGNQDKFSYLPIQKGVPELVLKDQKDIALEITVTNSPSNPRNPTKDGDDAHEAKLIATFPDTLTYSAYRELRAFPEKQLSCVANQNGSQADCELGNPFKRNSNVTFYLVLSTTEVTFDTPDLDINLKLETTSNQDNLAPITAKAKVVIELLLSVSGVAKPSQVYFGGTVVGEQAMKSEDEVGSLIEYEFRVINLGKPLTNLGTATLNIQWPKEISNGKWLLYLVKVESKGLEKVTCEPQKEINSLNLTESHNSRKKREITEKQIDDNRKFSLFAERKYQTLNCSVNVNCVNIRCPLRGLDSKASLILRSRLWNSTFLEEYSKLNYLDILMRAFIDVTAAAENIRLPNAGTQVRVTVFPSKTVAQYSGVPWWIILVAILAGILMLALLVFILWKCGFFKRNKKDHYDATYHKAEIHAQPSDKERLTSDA
T1 sequence (P12830 155-882): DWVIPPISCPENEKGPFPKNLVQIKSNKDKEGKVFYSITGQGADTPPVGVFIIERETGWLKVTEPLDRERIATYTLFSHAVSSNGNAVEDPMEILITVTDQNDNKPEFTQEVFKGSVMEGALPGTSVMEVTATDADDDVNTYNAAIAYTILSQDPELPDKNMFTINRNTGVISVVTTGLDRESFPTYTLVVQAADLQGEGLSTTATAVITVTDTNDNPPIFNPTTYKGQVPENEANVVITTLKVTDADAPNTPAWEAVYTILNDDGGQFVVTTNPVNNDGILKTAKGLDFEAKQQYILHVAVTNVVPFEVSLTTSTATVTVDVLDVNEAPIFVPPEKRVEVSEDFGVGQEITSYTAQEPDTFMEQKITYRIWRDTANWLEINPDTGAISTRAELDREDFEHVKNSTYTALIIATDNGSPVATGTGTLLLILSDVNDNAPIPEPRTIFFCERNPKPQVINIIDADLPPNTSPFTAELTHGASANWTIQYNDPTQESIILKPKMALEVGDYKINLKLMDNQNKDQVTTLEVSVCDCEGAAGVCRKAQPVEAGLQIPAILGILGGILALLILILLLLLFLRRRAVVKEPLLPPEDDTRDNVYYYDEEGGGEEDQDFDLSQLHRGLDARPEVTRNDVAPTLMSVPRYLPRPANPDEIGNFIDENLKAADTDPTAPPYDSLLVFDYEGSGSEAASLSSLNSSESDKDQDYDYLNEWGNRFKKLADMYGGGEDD
T1 sequence (P16144 28-1822 partner): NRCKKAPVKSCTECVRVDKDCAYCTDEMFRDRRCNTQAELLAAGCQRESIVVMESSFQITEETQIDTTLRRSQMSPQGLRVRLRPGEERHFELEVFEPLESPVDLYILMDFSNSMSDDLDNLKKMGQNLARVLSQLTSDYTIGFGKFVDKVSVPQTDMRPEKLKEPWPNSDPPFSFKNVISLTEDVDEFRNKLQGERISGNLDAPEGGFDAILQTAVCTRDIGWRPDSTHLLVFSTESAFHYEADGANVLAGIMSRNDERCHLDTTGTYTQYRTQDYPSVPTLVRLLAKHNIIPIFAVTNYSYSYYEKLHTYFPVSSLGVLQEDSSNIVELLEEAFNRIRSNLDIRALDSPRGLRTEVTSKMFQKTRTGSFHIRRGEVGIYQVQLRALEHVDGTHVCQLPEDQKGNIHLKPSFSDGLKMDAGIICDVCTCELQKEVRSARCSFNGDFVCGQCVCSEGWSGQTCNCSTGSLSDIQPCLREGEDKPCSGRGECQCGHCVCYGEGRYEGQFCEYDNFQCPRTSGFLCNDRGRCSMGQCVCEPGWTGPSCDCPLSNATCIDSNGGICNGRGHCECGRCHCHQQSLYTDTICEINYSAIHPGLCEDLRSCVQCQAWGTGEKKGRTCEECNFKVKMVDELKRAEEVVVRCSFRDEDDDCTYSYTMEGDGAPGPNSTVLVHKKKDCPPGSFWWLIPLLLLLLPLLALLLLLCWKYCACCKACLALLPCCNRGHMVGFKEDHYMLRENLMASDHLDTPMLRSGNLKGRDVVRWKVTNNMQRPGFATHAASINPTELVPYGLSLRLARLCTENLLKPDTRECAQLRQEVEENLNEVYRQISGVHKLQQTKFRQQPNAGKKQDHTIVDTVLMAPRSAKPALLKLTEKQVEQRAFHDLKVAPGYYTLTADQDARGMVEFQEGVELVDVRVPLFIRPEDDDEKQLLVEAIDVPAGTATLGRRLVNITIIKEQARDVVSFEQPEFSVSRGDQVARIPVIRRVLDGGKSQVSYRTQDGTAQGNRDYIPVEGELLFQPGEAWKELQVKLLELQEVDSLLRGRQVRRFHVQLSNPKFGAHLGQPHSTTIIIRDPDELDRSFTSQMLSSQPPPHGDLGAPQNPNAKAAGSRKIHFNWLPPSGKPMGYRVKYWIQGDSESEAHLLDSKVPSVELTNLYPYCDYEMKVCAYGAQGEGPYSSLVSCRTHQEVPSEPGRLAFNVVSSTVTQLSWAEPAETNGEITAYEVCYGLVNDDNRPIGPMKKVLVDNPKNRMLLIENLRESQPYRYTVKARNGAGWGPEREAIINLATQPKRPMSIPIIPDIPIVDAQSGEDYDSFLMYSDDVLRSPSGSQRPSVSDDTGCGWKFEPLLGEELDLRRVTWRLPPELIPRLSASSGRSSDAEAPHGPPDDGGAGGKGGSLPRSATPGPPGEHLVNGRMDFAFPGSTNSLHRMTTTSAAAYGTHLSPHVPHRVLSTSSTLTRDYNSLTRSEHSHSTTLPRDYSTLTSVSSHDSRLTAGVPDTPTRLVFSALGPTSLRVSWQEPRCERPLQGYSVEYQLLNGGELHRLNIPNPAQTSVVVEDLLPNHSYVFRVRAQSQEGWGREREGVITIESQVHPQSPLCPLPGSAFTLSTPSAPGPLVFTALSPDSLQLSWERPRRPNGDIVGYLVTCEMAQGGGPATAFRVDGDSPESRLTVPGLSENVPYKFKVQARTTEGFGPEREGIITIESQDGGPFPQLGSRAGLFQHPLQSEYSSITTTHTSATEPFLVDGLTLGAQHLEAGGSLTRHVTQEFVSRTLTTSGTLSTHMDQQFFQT
T2 sequence (P16144 28-1822): as the sequence (P16144 28-1822 partner) above
T2 sequence (P23229 24-1073 isoform P23229-2 limits assumed): as the sequence (P23229 24-1073 isoform P23229-2 limits assumed) above

- overall morphology and levels of receptor complex in the tumors (α6 integrin/E-cadherin): unchanged
- enrichment of integrin subunit in peptide- and phage-targeted protein fractions (β4 integrin): substantial enrichment in the β4 subunit
Sequence: CGIYRLRSC [Targeting synthetic LRS-motif peptide, from New England Peptides]
- homing of CRC cells to the liver (external metastatic areas) (LS-174T): diminished homing of CRC cells to the liver, which was significant
- homing of CRC cells to the liver (external metastatic areas) (DLD-1 [1]): diminished homing of CRC cells to the liver
- homing of CRC cells to the liver (external metastatic areas) (HCT-116m [2]): diminished homing of CRC cells to the liver, which was significant
- homing of CRC cells to the liver (external metastatic areas) (SW-48 [3]): diminished homing of CRC cells to the liver, which was significant
- homing of CRC cells to the liver (external metastatic areas) (HCCM-1544): diminished homing of CRC cells to the liver, which was significant
- liver tumors (external tumor areas) (LS-174T cells): significant reduction of liver tumors
- adherence of cells to microwells coated with the peptide (NCI-H630 cells [4]; NCI-H630 cells in which ITGA6 or both mRNAs were silenced, 1 µg substrate per well, 1 hour): impaired adherence
- adherence of cells to microwells coated with the peptide (NCI-H630 cells [4]; NCI-H630 cells with both α6 integrin and E-cadherin downmodulated): particularly pronounced
- liver adhesion [5]: inhibited liver adhesion of U293 cells only when they concomitantly expressed α6 integrin and E-cadherin
- proliferation [6]: no effects
- adhesiveness on hepatic tissues (DLD-1 [7]): significantly inhibited
- adhesion to normal hepatic tissues (HCT-116 cells): not influenced
- cell adhesion to human liver sections (NCI-H630 cells [8]): significant decrease in cell adhesion
- adhesiveness on hepatic tissues (HCT-116m [9]): significantly inhibited
- adhesiveness on hepatic tissues (HT-29): significantly inhibited
- adhesiveness on hepatic tissues (SW-48 [10]): significantly inhibited
